In brackets after ≈: the same amount, converted by molar mass.
Experiments:
Type in all cases: functional
[1] = test system: Mycoplasmoides pneumoniae; assay: Antimicrobial activity against macrolide-resistant Mycoplasma pneumoniae with 23S rRNA A2064G mutant isolate 2
[2] = test system: Mycoplasmoides pneumoniae; assay: Antimicrobial activity against macrolide-susceptible Mycoplasma pneumoniae FH
[3] = test system: Mycoplasmoides pneumoniae; assay: Antimicrobial activity against macrolide-susceptible Mycoplasma pneumoniae M129
[4] = test system: Mycoplasmoides pneumoniae; assay: Antimicrobial activity against macrolide-resistant Mycoplasma pneumoniae with 23S rRNA A2063G mutant isolate 1
[5] = test system: Mycoplasmoides pneumoniae; assay: Antimicrobial activity against macrolide-resistant Mycoplasma pneumoniae with 23S rRNA A2063G mutant isolate 6
[6] = test system: Mycoplasmoides pneumoniae; assay: Antimicrobial activity against macrolide-susceptible Mycoplasma pneumoniae Mac
[7] = test system: Mycoplasmoides pneumoniae; assay: Antimicrobial activity against macrolide-resistant Mycoplasma pneumoniae with 23S rRNA A2064G mutant isolate 4

Structure (SMILES) | MIC [1] | MIC [2] | MIC [3] | MIC [4] | MIC [5] | MIC [6] | MIC [7]
CC[C@H]1OC(=O)[C@H](C)[C@@H](O[C@H]2C[C@@](C)(OC)[C@@H](O)[C@H](C)O2)[C@H](C)[C@@H](O[C@@H]2O[C@H](C)C[C@H](N(C)C)[C@H]2O)[C@](C)(OC)C[C@@H](C)C(=O)[C@H](C)[C@@H](O)[C@]1(C)O [CLARITHROMYCIN] | 8 µg/mL (≈ 10.7 µM) | 0.004 µg/mL (≈ 0.00535 µM) | 0.002 µg/mL (≈ 0.00267 µM) | 32 µg/mL (≈ 42.8 µM) | 32 µg/mL (≈ 42.8 µM) | 0.002 µg/mL (≈ 0.00267 µM) | 8 µg/mL (≈ 10.7 µM)
C[C@H]1NCc2cc(-c3ccc4c(=O)c(C(=O)O)cn(C5CC5)c4c3OC(F)F)ccc21 [GARENOXACIN] | 0.016 µg/mL (≈ 0.0375 µM) | 0.016 µg/mL (≈ 0.0375 µM) | 0.016 µg/mL (≈ 0.0375 µM) | 0.016 µg/mL (≈ 0.0375 µM) | 0.031 µg/mL (≈ 0.0727 µM) | 0.016 µg/mL (≈ 0.0375 µM) | 0.016 µg/mL (≈ 0.0375 µM)
COc1c(N2CCNC(C)C2)c(F)cc2c(=O)c(C(=O)O)cn(C3CC3)c12 (stereo not given) [GATIFLOXACIN] | 0.063 µg/mL (≈ 0.168 µM) | 0.063 µg/mL (≈ 0.168 µM) | 0.063 µg/mL (≈ 0.168 µM) | 0.031 µg/mL (≈ 0.0826 µM) | 0.063 µg/mL (≈ 0.168 µM) | 0.063 µg/mL (≈ 0.168 µM) | 0.031 µg/mL (≈ 0.0826 µM)
C[C@H]1COc2c(N3CCN(C)CC3)c(F)cc3c(=O)c(C(=O)O)cn1c23.C[C@H]1COc2c(N3CCN(C)CC3)c(F)cc3c(=O)c(C(=O)O)cn1c23.O [LEVOFLOXACIN] | 0.25 µg/mL | 0.5 µg/mL | 0.25 µg/mL | 0.25 µg/mL | 0.5 µg/mL | 0.25 µg/mL | 0.25 µg/mL
CN(C)c1ccc(O)c2c1C[C@H]1C[C@H]3[C@H](N(C)C)C(O)=C(C(N)=O)C(=O)[C@@]3(O)C(O)=C1C2=O [MINOCYCLINE] | 0.25 µg/mL (≈ 0.546 µM) | 0.5 µg/mL (≈ 1.09 µM) | 0.25 µg/mL (≈ 0.546 µM) | 0.25 µg/mL (≈ 0.546 µM) | 0.25 µg/mL (≈ 0.546 µM) | 0.25 µg/mL (≈ 0.546 µM) | 0.25 µg/mL (≈ 0.546 µM)
